The record followed here is patent US20220347175A1, “PYRIDAZINONE DERIVATIVE” (Sumitomo Dainippon Pharma Co., Ltd., priority 2018, published 2022).

The target in the first experiment is T1, human Nav1.1 (Homo sapiens, UniProt P35498).
T1 construct: host or cells: HEK293
In words: Amplification of Nav1.1-derived voltage-dependent sodium current (Nav1.1 current), cell line stably expressing human Nav1.1, automated patch clamp. It counts as cell-based. The following applies: 10 μmol/L compound (Test Result 5). Here is the method:
Test 1: Evaluation of the Amplification of Nav1.1-Derived Voltage-Dependent Sodium Current (Nav1.1 Current) by Using a Cell Line Stably Expressing Human Nav1.1
(1) Preparation of Test Compounds
Test compounds were prepared by dissolving in DMSO at 200 times of the concentration at evaluation, and diluting the obtained solution to twice the concentration of evaluation with an extracellular fluid (135 mmol/L NaCl, 4 mmol/L KCl, 1 mmol/L MgCl2, 5 mmol/L CaCl2, 5 mmol/L Glucose, 10 mmol/L HEPES).
(2) Induction and Measurement of Nav1.1 Current
A HEK293 cell line stably expressing human Nav1.1 (cat #CYL3009, Millipore, USA, Human Embryonic Kidney 293) was purchased, and used in the present test. Nav1.1 current was induced by stimulating Ramp wave voltage. Detection of current which accompanied with the stimulation of voltage was carried out by a patch-clamp voltage-clamp method using HTS automated patch clamp system (SynchroPatch 768PE, Nanion Technologies GmbH, Germany). Only cells with more than 500 pA of voltage-dependent sodium channel current were used for the evaluation of the activity of compounds on Nav1.1 current because there was the possibility that currents derived from endogenous voltage-dependent sodium channels accounted for large proportion in cells with less than 500 pA of voltage-dependent sodium channel current which was induced by stimulating Ramp wave voltage.
(3) Pharmacologic Effect on Nav1.1 Current
The effect of test compounds on the amplification of Nav1.1-derived voltage-dependent sodium current was evaluated by using a cell line stably expressing human Nav1.1 and HTS automated patch clamp system. In other words, test compounds were added in an extracellular fluid containing 1% DMSO, and evaluated as a change of the peak value of Nav1.1 current and the area under the curve (AUC).
(4) Method for Pharmacological Evaluation
The Nav1.1 current amplification rates of test compounds were calculated by the following formula:
Nav1.1 current amplification rate (%)=100×[the peak value of Nav1.1 current or the area under the curve after the addition of test compounds]/[the peak value of Nav1.1 current or the area under the curve before the addition of test compounds]−100
In general terms: In patch-clamp work, channel activity is measured electrically.
Take `CC1CC=C(c2ccc(=O)n(CC(=O)N3CCC(Oc4ccccc4)CC3)n2)CC1` (racemic) [Example 390]: the “Nav1.1 current amplification rate (%)” value was found to be 50%.
Consider `CC1CC=C(c2ccc(=O)n(CC(=O)N3CCN(Cc4ccncc4)CC3)n2)CC1` (racemic) [Example 392], for which the “Nav1.1 current amplification rate (%)” value is on record as 53%.
On to `CC1CC=C(c2ccc(=O)n(CC(=O)N3CCN(Cc4cccnc4)CC3)n2)CC1` (racemic) [Example 393], for which the “Nav1.1 current amplification rate (%)” value is reported as 19%.
Take `N#Cc1ccc(NC(=O)Cn2nc(N3CCCCC3)ccc2=O)cc1` [Example 3]: the “Nav1.1 current amplification rate (%)” value was 40%.
Consider `N#Cc1ccc(NC(=O)Cn2nc(N3CCCC3)ccc2=O)cc1` [Example 4], for which the “Nav1.1 current amplification rate (%)” value amounted to 3%.
Take `N#Cc1ccc(NC(=O)Cn2nc(N3CCC(F)(F)CC3)ccc2=O)cc1` [Example 5]: the “Nav1.1 current amplification rate (%)” value is recorded as 6%.
Still for that read-out and setting: as for `CC(C)(C)C1CCN(c2ccc(=O)n(CC(=O)Nc3ccc(C#N)cc3)n2)CC1` [Example 6], the figure is 35%; as for `N#Cc1ccc(NC(=O)Cn2nc(N3CCCC(O)C3)ccc2=O)cc1` (stereo not drawn) [Example 7], 3%.
Still for that read-out and setting: the figure for `N#Cc1ccc(NC(=O)Cn2nc(N3CCCC(C(N)=O)C3)ccc2=O)cc1` (stereo not drawn) [Example 8] is 4%.
The same measure, in the same setting: as for `COC1CCN(c2ccc(=O)n(CC(=O)Nc3ccc(C#N)cc3)n2)CC1` [Example 9], the figure is 11%; as for `N#Cc1ccc(NC(=O)Cn2nc(N3CCC(C(F)(F)F)CC3)ccc2=O)cc1` [Example 10], 124%; as for `N#Cc1ccc(NC(=O)Cn2nc(N3CCCCCC3)ccc2=O)cc1` [Example 11], 205%.
With `N#Cc1ccc(NC(=O)Cn2nc(N3CCCCCCC3)ccc2=O)cc1` [Example 12], the “Nav1.1 current amplification rate (%)” value is recorded as 241%.
As to `CC1CCCN(c2ccc(=O)n(CC(=O)Nc3ccc(C#N)cc3)n2)C1` (stereo not drawn) [Example 13], the “Nav1.1 current amplification rate (%)” value came out at 76%.
On the same count and under the same terms, as for `CC1CC(C)CN(c2ccc(=O)n(CC(=O)Nc3ccc(C#N)cc3)n2)C1` (stereo not drawn) [Example 14], the figure is 9%.
Turning to `CC1CC(C)CN(c2ccc(=O)n(CC(=O)Nc3ccc(C#N)cc3)n2)C1` (stereo not drawn) [Example 15], the “Nav1.1 current amplification rate (%)” value stood at 10%.
On to `N#Cc1ccc(NC(=O)Cn2nc(N3CCCC(C(F)(F)F)C3)ccc2=O)cc1` (stereo not drawn) [Example 16], for which the “Nav1.1 current amplification rate (%)” value is recorded as 59%.
As to `N#Cc1ccc(NC(=O)Cn2nc(N3CCC4(CC3)CC4)ccc2=O)cc1` [Example 17], the “Nav1.1 current amplification rate (%)” value was found to be 212%.
The same measure, in the same setting: as for `N#Cc1ccc(NC(=O)Cn2nc(N3CC4CC4C3)ccc2=O)cc1` (stereo not drawn) [Example 18], the figure is 11%.
Still for that read-out and setting: as for `CC1CCN(c2ccc(=O)n(CC(=O)Nc3ccc(C#N)cc3)n2)C1` (stereo not drawn) [Example 19], the figure is 98%; as for `N#Cc1ccc(NC(=O)Cn2nc(N3CCCC4(CC4)C3)ccc2=O)cc1` [Example 20], 152%; as for `CC1(C)CCN(c2ccc(=O)n(CC(=O)Nc3ccc(C#N)cc3)n2)C1` [Example 21], 130%.
On the same count and under the same terms, as for `CC1(C)CCCN(c2ccc(=O)n(CC(=O)Nc3ccc(C#N)cc3)n2)C1` [Example 22], the figure is 110%; as for `N#Cc1ccc(NC(=O)Cn2nc(N3CCC4(CCCC4)C3)ccc2=O)cc1` [Example 24], 286%.
For the compound `N#Cc1ccc(NC(=O)Cn2nc(N3CCC4(CC4)C3)ccc2=O)cc1` [Example 25], the “Nav1.1 current amplification rate (%)” value is 163%.
Still for that read-out and setting: as for `N#Cc1ccc(NC(=O)Cn2nc(N3CCC4(CCC4)CC3)ccc2=O)cc1` [Example 26], the figure is 364%; as for `N#Cc1ccc(NC(=O)Cn2nc(N3CCC4(CC3)COC4)ccc2=O)cc1` [Example 27], 5%.
As for `CCC1(C)CCN(c2ccc(=O)n(CC(=O)Nc3ccc(C#N)cc3)n2)CC1` [Example 28], the “Nav1.1 current amplification rate (%)” value was found to be 158%.
The same measure, in the same setting: the figure for `N#Cc1ccc(NC(=O)Cn2nc(N3CCC4(CCCO4)CC3)ccc2=O)cc1` [Example 29] is 20%.
For the compound `CCCCN(C)c1ccc(=O)n(CC(=O)Nc2ccc(C#N)cc2)n1` [Example 30], the “Nav1.1 current amplification rate (%)” value is 77%.
On to `N#Cc1ccc(NC(=O)Cn2nc(N3CCC4(CCCCC4)C3)ccc2=O)cc1` [Example 31], for which the “Nav1.1 current amplification rate (%)” value is reported as 220%.
On to `N#Cc1ccc(NC(=O)Cn2nc(N3CCC4(CC3)CC(F)(F)C4)ccc2=O)cc1` [Example 32], for which the “Nav1.1 current amplification rate (%)” value turned out to be 60%.
The same measure, in the same setting: as for `N#Cc1ccc(NC(=O)Cn2nc(N3CCCC4(CCC4)C3)ccc2=O)cc1` [Example 33], the figure is 220%.
With `N#Cc1ccc(NC(=O)Cn2nc(N3CCC4(CCC4)C3)ccc2=O)cc1` [Example 34], the “Nav1.1 current amplification rate (%)” value was 311%.
Same read-out and setting: the figure for `Cc1c(N2CCC(C)CC2)nn(CC(=O)Nc2ccc(C#N)cc2)c(=O)c1C` [Example 35] is 301%; for `CC1CCN(c2nn(CC(=O)Nc3ccc(C#N)cc3)c(=O)c3c2CCCC3)CC1` [Example 36] it is 312%.
On the same count and under the same terms, as for `N#Cc1ccc(NC(=O)Cn2nc(C3=CCCCC3)ccc2=O)cc1` [Example 39], the figure is 125%; as for `N#Cc1ccc(NC(=O)Cn2nc(C3CCCCC3)ccc2=O)cc1` [Example 40], 20%.
With `CC1CC=C(c2ccc(=O)n(CC(=O)Nc3ccc(C#N)cc3)n2)CC1` (stereo not drawn) [Example 41], the “Nav1.1 current amplification rate (%)” value came to 324%.
Consider `CC1(C)CC=C(c2ccc(=O)n(CC(=O)Nc3ccc(C#N)cc3)n2)CC1` [Example 42], for which the “Nav1.1 current amplification rate (%)” value came out at 216%.
As for `CC1CCC(c2ccc(=O)n(CC(=O)Nc3ccc(C#N)cc3)n2)CC1` (stereo not drawn) [Example 43], the “Nav1.1 current amplification rate (%)” value is 174%.
Still for that read-out and setting: as for `CC1CCC(c2ccc(=O)n(CC(=O)Nc3ccc(C#N)cc3)n2)CC1` (stereo not drawn) [Example 44], the figure is 59%; as for `CC1(C)CCC=C(c2ccc(=O)n(CC(=O)Nc3ccc(C#N)cc3)n2)C1` [Example 45], 202%.
On the same count and under the same terms, as for `CC1(C)CCCC(c2ccc(=O)n(CC(=O)Nc3ccc(C#N)cc3)n2)C1` (stereo not drawn) [Example 46], the figure is 85%.

The experiment is the same for the next values; noted with them: 10 μmol/L compound (Test Result 5); read-out: Nav1.1 current amplification rate (%).
Regarding `CC1CCN(c2ccc(=O)n(CC(=O)Nc3ccc(C#N)cc3)n2)CC1` [Example 1, N-(4-cyanophenyl)-2-[3-(4-methylpiperidin-1-yl)-6-oxopyridazin-1(6H)-yl]acetamide], the activation at 10 µM came to 246%.
Take `CC1(C)CCN(c2ccc(=O)n(CC(=O)Nc3ccc(C#N)cc3)n2)CC1` [Example 2, N-(4-Cyanophenyl)-2-[3-(4,4-dimethylpiperidin-1-yl)-6-oxopyridazin-1(6H)-yl]acetamide]: the activation at 10 µM was 148%.
As for `N#Cc1ccc(NC(=O)Cn2nc(C3=CCC(F)(F)CC3)ccc2=O)cc1` [Example 37, N-(4-Cyanophenyl)-2-[3-(4,4-difluorocyclohex-1-en-1-yl)-6-oxopyridazin-1(6H)-yl]acetamide], the activation at 10 µM came out at 93%.
The same measure, in the same setting: as for `CC1(C)CCC(c2ccc(=O)n(CC(=O)Nc3ccc(C#N)cc3)n2)CC1` [Example 38, N-(4-Cyanophenyl)-2-[3-(4,4-dimethylcyclohexyl)-6-oxopyridazin-1(6H)-yl]acetamide], the figure is 174%.
